Key:
[1] = target: Glycogen synthase kinase-3 beta (Homo sapiens) (UniProt P49841); experiment: Inhibition of GSK3beta (unknown origin) at 1 uM
[2] = target: Mitogen-activated protein kinase 1 (Homo sapiens) (UniProt P28482); experiment: Inhibition of ERK2 (unknown origin) at 1 uM
[3] = target: Mitogen-activated protein kinase 8 (Homo sapiens) (UniProt P45983); experiment: Inhibition of JNK1 (unknown origin) at 1 uM
[4] = target: Receptor tyrosine-protein kinase erbB-2 (Homo sapiens) (UniProt P04626); experiment: Inhibition of HER2 (unknown origin) at 1 uM
Receptor tyrosine-protein kinase erbB-2 (Homo sapiens), sequence (P04626 whole entry): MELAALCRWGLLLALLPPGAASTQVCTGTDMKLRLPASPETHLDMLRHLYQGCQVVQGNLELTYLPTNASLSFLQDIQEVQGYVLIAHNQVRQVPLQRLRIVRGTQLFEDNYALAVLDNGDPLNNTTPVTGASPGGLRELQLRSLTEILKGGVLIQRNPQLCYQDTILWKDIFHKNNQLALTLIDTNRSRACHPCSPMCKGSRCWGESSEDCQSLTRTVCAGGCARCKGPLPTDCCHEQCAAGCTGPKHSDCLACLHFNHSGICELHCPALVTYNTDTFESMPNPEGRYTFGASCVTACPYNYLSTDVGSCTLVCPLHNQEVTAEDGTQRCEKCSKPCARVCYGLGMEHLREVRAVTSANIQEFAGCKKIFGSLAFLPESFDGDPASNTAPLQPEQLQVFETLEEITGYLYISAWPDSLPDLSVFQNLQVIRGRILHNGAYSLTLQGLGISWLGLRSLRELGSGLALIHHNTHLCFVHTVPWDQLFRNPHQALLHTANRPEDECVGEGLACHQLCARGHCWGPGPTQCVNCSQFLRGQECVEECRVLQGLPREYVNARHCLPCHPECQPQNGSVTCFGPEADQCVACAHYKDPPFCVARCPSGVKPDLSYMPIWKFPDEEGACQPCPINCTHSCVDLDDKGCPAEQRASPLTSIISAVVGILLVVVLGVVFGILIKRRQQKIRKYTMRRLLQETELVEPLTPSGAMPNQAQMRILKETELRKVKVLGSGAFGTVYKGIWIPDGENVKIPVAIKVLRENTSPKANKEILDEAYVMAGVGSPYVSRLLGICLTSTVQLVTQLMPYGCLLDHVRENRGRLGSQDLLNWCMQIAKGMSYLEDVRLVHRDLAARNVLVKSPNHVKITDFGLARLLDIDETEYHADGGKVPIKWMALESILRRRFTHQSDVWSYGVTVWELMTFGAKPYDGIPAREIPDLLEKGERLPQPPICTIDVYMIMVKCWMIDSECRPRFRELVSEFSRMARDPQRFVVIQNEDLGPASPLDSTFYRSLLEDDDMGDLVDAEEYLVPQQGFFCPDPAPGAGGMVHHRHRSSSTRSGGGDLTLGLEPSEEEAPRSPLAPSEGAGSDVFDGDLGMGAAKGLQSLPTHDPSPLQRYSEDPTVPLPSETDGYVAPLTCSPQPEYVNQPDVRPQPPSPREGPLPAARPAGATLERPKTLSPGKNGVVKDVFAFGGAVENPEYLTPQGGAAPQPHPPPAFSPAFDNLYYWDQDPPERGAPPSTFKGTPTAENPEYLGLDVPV

[5] = target: Epidermal growth factor receptor (Homo sapiens) (UniProt P00533); experiment: Inhibition of EGFR (unknown origin) at 1 uM
[6] = target: Vascular endothelial growth factor receptor 2 (Homo sapiens) (UniProt P35968); experiment: Inhibition of KDR (unknown origin) at 1 uM
[7] = target: Platelet-derived growth factor receptor alpha (Homo sapiens) (UniProt P16234); experiment: Inhibition of PDGFRalpha (unknown origin) at 1 uM
[8] = target: Mitogen-activated protein kinase 10 (Homo sapiens) (UniProt P53779); experiment: Inhibition of JNK3 (unknown origin) at 1 uM
[9] = target: Insulin receptor (Homo sapiens) (UniProt P06213); experiment: Inhibition of InsR (unknown origin) at 1 uM
Insulin receptor (Homo sapiens), sequence (P06213 28-758 limits assumed): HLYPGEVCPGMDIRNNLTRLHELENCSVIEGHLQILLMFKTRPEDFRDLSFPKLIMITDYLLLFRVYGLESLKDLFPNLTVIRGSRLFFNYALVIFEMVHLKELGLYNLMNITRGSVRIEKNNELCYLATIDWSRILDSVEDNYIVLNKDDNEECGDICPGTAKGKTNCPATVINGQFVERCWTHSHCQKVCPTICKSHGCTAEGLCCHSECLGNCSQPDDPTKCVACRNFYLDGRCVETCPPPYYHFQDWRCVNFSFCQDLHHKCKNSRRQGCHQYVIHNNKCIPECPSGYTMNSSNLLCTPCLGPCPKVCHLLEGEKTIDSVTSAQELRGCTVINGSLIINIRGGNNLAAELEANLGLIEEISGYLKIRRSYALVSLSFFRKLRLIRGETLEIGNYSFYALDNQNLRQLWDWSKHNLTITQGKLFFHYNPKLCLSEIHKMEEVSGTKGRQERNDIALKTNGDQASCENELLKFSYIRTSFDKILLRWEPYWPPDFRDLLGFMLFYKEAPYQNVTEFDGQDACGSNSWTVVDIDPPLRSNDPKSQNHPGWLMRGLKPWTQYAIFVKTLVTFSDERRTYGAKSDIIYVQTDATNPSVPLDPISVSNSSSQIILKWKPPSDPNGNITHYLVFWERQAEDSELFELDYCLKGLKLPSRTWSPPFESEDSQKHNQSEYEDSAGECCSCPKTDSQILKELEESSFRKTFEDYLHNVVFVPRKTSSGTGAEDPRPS
Insulin receptor (Homo sapiens), sequence (P06213 763-1382 limits assumed): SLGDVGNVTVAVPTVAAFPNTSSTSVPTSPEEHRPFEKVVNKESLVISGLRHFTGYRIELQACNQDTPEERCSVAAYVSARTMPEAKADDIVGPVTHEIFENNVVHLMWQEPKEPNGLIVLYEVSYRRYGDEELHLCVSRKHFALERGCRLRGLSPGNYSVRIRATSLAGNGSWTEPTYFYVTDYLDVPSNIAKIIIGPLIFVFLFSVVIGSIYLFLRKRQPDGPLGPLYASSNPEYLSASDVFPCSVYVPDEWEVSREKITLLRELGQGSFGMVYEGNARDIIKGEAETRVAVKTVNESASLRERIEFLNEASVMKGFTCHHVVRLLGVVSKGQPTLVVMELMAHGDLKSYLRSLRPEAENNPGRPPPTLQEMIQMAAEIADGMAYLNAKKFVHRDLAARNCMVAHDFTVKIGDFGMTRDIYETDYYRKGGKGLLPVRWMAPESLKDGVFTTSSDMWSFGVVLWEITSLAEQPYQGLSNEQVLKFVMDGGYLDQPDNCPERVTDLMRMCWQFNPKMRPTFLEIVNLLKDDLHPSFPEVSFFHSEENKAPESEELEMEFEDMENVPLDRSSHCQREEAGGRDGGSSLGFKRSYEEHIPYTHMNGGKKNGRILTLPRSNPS

[10] = target: Mitogen-activated protein kinase 11 (Homo sapiens) (UniProt Q15759); experiment: Inhibition of p38beta (unknown origin) at 1 uM
[11] = target: Mitogen-activated protein kinase 14 (Homo sapiens) (UniProt Q16539); experiment: Inhibition of p38alpha (unknown origin) at 1 uM
Mitogen-activated protein kinase 14 (Homo sapiens), sequence (Q16539 whole entry): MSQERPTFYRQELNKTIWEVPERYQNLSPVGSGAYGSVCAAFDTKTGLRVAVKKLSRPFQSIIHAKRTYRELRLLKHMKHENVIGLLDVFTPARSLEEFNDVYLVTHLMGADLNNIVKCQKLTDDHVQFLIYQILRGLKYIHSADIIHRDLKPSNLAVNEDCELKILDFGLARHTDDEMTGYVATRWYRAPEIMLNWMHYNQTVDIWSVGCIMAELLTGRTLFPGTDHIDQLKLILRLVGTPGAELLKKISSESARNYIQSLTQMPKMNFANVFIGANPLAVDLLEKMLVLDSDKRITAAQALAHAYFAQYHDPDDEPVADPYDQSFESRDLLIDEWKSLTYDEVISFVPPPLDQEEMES

Ephrin type-A receptor 2 [12] = target: T1, Ephrin type-A receptor 2 (Homo sapiens, UniProt P29317); experiment: Inhibition of EphA2 (unknown origin) expressed in […] cells assessed as reduction in wound closure after 72 hrs by phase contrast microscopy based would healing assay; assay type: cell-based
T1 sequence (P29317 whole entry): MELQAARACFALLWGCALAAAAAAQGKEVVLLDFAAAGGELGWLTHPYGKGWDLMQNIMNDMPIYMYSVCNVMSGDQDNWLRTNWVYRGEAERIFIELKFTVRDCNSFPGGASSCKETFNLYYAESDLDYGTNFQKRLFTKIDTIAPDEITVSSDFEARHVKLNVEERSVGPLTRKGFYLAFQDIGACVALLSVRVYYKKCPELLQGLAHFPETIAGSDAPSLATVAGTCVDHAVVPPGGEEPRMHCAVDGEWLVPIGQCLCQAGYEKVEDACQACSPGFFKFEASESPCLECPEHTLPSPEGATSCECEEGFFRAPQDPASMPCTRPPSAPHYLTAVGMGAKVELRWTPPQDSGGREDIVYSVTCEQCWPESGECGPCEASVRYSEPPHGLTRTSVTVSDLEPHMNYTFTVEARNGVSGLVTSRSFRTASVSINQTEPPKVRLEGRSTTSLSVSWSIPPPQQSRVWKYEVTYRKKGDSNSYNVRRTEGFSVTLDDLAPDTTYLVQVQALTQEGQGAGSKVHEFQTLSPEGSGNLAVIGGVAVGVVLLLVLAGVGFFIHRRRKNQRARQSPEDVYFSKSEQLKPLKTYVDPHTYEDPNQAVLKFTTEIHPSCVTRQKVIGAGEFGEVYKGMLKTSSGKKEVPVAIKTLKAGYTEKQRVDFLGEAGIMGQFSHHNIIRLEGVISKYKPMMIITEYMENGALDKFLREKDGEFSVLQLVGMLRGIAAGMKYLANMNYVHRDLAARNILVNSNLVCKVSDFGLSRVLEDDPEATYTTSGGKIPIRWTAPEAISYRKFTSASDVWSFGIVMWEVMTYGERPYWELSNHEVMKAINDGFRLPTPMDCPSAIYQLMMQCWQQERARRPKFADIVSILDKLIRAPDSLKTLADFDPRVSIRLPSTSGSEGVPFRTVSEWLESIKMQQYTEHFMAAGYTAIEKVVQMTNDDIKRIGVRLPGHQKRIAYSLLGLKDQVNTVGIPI

Ephrin type-A receptor 2 [13] = target: T1, Ephrin type-A receptor 2; experiment: Inhibition of EphA2 (unknown origin) pre-incubated with enzyme for 10 mins before adding peptide substrate and ATP using TK-substrate-biotin and SEB by time-resolved fluorescence resonance energy transfer assay
[14] = target: Insulin-like growth factor 1 receptor (Homo sapiens) (UniProt P08069); experiment: Inhibition of IGF1R (unknown origin) at 1 uM
Ephrin type-A receptor 2 [15] = target: T1, Ephrin type-A receptor 2; experiment: Inhibition of EphA2 (unknown origin) at 10 uM pre-incubated with enzyme for 10 mins before adding peptide substrate and ATP using TK-substrate-biotin and SEB by time-resolved fluorescence resonance energy transfer assay

Mitogen-activated protein kinase 1 (Homo sapiens), sequence (P28482 whole entry): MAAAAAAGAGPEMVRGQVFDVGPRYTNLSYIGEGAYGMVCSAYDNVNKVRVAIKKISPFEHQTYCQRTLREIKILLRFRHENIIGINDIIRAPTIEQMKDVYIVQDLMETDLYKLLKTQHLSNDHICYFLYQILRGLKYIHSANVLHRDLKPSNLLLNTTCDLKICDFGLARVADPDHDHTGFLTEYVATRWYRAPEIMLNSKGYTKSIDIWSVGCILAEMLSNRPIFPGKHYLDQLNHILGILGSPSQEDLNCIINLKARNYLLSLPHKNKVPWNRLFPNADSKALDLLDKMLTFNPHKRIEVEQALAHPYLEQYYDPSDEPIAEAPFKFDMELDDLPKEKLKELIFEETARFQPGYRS
Glycogen synthase kinase-3 beta (Homo sapiens), sequence (P49841 whole entry, looked up): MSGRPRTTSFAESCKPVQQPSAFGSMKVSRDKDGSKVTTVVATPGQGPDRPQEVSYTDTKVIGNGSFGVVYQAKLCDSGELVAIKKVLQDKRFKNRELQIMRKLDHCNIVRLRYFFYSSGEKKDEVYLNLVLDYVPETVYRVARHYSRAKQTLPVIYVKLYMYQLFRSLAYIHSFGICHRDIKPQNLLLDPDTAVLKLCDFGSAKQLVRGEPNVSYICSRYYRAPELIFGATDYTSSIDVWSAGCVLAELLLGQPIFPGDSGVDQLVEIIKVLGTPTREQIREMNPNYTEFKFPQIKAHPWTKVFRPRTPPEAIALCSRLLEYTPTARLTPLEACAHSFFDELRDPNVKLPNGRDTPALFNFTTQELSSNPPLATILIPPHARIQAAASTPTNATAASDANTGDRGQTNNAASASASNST

Row | SMILES | inhibition [1] | inhibition [2] | inhibition [3] | inhibition [4] | inhibition [5] | inhibition [6] | inhibition [7] | inhibition [8] | inhibition [9] | inhibition [10] | inhibition [11] | inhibition (Ephrin type-A receptor 2 [12]) | IC50 (Ephrin type-A receptor 2 [13]) | inhibition [14] | inhibition (Ephrin type-A receptor 2 [15])
1 | COc1cc2c(Nc3ccc(Cl)cc3F)ncnc2cc1OCC1CNCCO1 (stereo not given) | 11% | 0% | 0% | 22% | 100% | 76% | 17% | 0% | 15% | 2% | 16% | Dose-dependent effect | 0.16 µM | 7% | 
2 | CCCc1ccc(Nc2ncnc3cc(OCC4CNCCO4)c(OC)cc23)cc1 (stereo not given) |  |  |  |  |  |  |  |  |  |  |  |  |  |  | 49%
